Reference: publication PMC9774391 (ACS Omega, 2022)

How the values were obtained:
MAO-B = target: T1, MAO-B (Homo sapiens, UniProt P27338); test: In vitro MAO-B inhibition assay (fluorometric); format: biochemical
T1 sequence (P27338 1-520): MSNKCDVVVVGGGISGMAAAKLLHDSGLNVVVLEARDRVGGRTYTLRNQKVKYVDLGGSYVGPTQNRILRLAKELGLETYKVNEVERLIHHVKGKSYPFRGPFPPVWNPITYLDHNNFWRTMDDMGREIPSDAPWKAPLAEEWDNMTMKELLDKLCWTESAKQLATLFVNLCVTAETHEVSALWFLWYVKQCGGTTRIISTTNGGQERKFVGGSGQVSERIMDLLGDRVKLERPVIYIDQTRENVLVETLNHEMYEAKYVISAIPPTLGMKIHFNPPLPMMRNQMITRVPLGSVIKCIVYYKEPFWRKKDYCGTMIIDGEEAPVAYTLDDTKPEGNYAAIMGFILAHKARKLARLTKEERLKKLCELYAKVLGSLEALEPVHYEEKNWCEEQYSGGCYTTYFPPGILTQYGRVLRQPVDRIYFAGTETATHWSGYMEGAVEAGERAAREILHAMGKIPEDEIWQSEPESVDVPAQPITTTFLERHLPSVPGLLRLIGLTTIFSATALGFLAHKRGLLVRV

MAO-A = target: T2, MAO-A (Homo sapiens, UniProt P21397); test: In vitro MAO-A inhibition assay (fluorometric); format: biochemical
T2 sequence (P21397 1-527): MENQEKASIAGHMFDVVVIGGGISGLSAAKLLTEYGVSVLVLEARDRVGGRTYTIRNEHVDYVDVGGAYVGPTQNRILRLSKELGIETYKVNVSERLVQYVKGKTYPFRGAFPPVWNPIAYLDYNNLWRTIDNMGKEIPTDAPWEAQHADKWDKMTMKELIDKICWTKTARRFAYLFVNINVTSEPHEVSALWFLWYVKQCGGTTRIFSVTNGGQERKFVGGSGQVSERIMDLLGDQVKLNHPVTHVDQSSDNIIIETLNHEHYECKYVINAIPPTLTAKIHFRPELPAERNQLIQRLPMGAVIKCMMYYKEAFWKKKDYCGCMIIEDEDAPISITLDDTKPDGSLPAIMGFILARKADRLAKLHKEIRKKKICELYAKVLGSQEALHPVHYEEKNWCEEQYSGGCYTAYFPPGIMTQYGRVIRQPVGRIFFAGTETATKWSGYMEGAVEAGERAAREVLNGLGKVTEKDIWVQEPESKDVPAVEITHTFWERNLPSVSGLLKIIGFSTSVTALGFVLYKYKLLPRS

[1] = test system: NIH/3T3 mouse embryonic fibroblast cell line; test: Cytotoxicity test (MTT); format: cell-based; conditions: NIH/3T3 mouse fibroblast healthy cell line
Description: The NIH/3T3 cells were incubated according to the manufacturer’s recommendations. In 96-well plates, NIH/3T3 cells were seeded at a density of 1 × 10^4 cells per well. The MTT test was conducted in line with the previously mentioned standards.[19],[22],[23],[28],[30]

AChE = AChE (Homo sapiens, UniProt P22303); test: biochemical
Description: (§1) According to the modified Ellman approach outlined in our team’s earlier work, the AChE and BChE inhibitory activities of the obtained compounds were evaluated.[18]−[21]

BChE = BChE (Homo sapiens, UniProt P06276); test: biochemical
Description: as §1

Sequence of AChE (P22303 32-614): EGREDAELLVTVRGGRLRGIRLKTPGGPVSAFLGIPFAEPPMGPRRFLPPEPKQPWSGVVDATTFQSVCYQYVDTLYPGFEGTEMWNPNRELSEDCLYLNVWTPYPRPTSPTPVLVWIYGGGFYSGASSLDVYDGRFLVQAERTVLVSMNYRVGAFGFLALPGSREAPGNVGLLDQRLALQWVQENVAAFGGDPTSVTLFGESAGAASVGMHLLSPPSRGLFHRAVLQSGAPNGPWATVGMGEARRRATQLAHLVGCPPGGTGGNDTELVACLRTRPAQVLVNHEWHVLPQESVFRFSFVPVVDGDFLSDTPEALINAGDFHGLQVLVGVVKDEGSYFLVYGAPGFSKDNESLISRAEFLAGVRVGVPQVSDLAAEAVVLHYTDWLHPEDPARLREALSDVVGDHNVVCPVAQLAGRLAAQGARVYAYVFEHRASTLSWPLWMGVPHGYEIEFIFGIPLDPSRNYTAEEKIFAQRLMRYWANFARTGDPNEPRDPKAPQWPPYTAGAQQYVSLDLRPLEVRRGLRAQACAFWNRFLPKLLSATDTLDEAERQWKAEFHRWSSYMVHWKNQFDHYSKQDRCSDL
Sequence of BChE (P06276 29-602): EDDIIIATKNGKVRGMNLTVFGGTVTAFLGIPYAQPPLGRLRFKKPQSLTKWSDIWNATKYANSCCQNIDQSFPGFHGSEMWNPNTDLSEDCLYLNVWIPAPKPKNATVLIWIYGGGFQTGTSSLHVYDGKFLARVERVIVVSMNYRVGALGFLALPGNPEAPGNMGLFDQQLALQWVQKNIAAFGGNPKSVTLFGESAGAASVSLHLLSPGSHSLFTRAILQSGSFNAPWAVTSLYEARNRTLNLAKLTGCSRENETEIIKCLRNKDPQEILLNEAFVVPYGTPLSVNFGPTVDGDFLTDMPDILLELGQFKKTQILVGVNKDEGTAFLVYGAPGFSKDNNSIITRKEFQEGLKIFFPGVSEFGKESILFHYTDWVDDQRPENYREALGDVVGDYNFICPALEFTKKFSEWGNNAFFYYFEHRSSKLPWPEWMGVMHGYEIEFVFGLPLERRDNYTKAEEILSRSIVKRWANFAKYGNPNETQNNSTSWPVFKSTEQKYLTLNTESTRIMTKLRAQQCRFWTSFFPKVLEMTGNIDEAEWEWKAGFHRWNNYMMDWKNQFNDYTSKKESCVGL

## COc1cc2c(cc1OC)C(=O)C(=Cc1ccc(NC(=O)CN3CCN(CCN(C)C)CC3)cc1)C2 [D24]
MAO-B; 10^–3 M
  human MAO-B inhibition (%): 75.628 ± 1.426%
MAO-B; 10^–4 M
  human MAO-B inhibition (%): 46.324 ± 0.521%
MAO-A; 10^–3 M
  human MAO-A inhibition (%): 64.076 ± 0.323%
MAO-A; 10^–4 M
  human MAO-A inhibition (%): 25.257 ± 0.621%
[1]
  IC50: 18.64 ± 0.119 µM
AChE
  IC50: 0.0469 ± 0.0019 µM
AChE; 10^–3 M
  human AChE inhibition (%): 93.224 ± 1.719%
AChE; 10^–4 M
  human AChE inhibition (%): 90.486 ± 1.298%
AChE; 10^–5 M
  human AChE inhibition (%): 82.415 ± 1.102%
AChE; 10^–6 M
  human AChE inhibition (%): 72.846 ± 1.267%
AChE; 10^–7 M
  human AChE inhibition (%): 63.963 ± 1.088%
AChE; 10^–8 M
  human AChE inhibition (%): 41.281 ± 0.623%
AChE; 10^–9 M
  human AChE inhibition (%): 18.773 ± 0.411%
BChE; 10^–3 M
  human BChE inhibition (%): 97.932 ± 2.016%
BChE; 10^–4 M
  human BChE inhibition (%): 49.401 ± 0.559%
